Calls of active or inactive are those of the source.
What was measured:
cells [1] = type: functional
[2] = target: T1, Zinc finger protein mex-5 (Caenorhabditis elegans, UniProt Q9XUB2); assay: MEX-5/TCR-2 RNA interaction inhibitors, dose response, biochemical, C. elegans, fluorescence polarization (AID 1960)
T1 sequence (Q9XUB2 whole entry): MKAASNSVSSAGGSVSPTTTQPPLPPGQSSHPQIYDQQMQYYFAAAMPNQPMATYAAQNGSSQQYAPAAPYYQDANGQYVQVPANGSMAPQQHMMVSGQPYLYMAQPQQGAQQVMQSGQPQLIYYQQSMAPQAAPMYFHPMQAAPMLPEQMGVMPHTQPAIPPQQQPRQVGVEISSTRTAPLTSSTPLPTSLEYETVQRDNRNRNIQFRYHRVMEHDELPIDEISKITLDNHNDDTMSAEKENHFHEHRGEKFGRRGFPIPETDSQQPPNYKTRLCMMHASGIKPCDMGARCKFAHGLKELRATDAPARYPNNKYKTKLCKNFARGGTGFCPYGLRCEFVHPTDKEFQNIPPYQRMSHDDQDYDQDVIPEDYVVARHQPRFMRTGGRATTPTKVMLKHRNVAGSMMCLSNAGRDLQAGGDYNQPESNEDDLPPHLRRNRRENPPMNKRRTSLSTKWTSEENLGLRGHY

cells [3] = assay: cells
[4] = target: T2, RNA-binding protein pos-1 (Caenorhabditis elegans, UniProt G5EF15); assay: inhibitors of POS-1/mex-3 RNA binding, dose response, biochemical, fluorescence polarization (AID 1964);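 further: purified POS-1 fused to maltose binding protein made in E. coli; potency of compounds blocking POS-1 binding to fluorescent RNA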
T2 sequence (G5EF15 whole entry): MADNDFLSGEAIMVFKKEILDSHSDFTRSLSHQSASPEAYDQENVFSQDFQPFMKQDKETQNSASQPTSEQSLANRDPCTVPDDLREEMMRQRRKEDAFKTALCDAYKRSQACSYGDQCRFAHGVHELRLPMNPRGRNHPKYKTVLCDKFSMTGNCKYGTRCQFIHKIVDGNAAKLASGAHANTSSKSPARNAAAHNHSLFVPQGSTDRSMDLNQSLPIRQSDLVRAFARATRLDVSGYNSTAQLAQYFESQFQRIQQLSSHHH

[5] = HEp-2 cell cytotoxicity, dose response, cytotoxicity control for RSV inhibitor project, HTS (AID 2410); type: functional; conditions: human respiratory syncytial virus
[6] = inhibitors of intracellular T. cruzi replication, confirmation, NIH3T3 host cells, beta-gal luminescence (AID 2044); type: functional, cell-based;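 further: intracellular parasites grown in NIH/3T3 mouse fibroblasts as host cells; luminescent beta-galactosidase reporter signal from transgenic T. cruzi replicating inside host cells; inhibitors lower the luminescence signal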
Cytochrome P450 2C9 = Cytochrome P450 2C9 (Homo sapiens, UniProt P11712)
Cytochrome P450 2C9, sequence (P11712 whole entry): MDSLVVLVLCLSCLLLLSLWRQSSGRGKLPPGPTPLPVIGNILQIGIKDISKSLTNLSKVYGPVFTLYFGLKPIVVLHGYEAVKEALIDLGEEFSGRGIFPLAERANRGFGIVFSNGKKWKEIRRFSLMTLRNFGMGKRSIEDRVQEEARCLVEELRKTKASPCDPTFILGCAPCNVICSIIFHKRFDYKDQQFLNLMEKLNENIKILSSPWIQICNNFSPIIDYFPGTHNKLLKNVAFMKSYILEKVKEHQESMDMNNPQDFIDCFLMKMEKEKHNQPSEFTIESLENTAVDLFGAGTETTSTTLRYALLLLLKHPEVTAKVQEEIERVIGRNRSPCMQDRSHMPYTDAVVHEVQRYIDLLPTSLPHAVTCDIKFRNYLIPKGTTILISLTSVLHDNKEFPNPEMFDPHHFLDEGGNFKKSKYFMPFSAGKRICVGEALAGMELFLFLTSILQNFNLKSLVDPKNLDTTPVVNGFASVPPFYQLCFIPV

Cytochrome P450 2C19 = Cytochrome P450 2C19 (Homo sapiens, UniProt P33261); assay: Cytochrome panel assay with activity outcomes. Panel member name: p450-cyp2c19 Compounds with AC50 equal or less than 10 uM are considered active; type: functional
Cytochrome P450 2C19, sequence (P33261 whole entry): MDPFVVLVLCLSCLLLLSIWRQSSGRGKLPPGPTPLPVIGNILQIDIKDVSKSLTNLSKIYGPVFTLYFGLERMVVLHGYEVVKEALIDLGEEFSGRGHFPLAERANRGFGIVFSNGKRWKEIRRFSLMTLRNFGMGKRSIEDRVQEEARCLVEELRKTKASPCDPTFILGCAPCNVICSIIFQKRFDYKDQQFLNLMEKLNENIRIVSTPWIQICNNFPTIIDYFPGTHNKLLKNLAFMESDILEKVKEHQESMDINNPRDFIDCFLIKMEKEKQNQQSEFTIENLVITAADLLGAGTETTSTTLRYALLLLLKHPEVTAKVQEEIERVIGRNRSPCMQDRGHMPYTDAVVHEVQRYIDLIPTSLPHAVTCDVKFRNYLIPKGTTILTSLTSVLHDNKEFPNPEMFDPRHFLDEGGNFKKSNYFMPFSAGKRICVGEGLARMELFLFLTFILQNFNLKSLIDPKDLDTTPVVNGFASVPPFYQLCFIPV

[7] = cytotoxicity toward NIH3T3 fibroblasts, dose response, counter-screen, cell-based, ATP luminescence, mouse fibroblasts (AID 2010); type: functional;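 further: cells exposed to compound for about 90 hours before reading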
Protein skinhead-1 = target: T3, Protein skinhead-1 (Caenorhabditis elegans, UniProt P34707); type: functional
T3 sequence (P34707 whole entry): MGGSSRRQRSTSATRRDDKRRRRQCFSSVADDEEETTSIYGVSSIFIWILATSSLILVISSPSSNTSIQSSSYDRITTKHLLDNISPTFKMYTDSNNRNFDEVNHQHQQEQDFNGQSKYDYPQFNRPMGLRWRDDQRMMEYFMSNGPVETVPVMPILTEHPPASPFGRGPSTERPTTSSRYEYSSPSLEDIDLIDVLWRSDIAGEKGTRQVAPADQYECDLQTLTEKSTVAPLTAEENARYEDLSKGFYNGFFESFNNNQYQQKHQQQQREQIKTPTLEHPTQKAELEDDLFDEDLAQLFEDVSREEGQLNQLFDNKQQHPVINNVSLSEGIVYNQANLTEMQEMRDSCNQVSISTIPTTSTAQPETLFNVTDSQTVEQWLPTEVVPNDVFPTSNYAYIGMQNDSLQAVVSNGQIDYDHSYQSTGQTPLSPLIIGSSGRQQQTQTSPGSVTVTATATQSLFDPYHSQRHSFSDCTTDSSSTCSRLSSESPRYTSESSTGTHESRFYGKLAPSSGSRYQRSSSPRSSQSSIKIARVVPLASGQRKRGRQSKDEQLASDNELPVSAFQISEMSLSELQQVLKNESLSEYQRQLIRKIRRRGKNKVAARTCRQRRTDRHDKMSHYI

[8] = growth suppression of PTEN-null colon cells, dose response, cell-based, HCT116 PTEN knockout (AID 1047); type: functional;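 further: HCT116 colon tumor cells with PTEN knocked out; cells exposed to compound for 60 hours before readout; potency for loss of cell viability measured by luminescence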
[9] = growth suppression of beta-catenin-knockout colon cells, dose response, cell-based, HCT116, human colon tumor (AID 1045); type: functional;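 further: HCT116 colon tumor cells with beta catenin knocked out; cells exposed to compound for 60 hours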
Estrogen receptor beta = Estrogen receptor beta (Homo sapiens, UniProt Q92731); assay: ERβ–SRC-3 coactivator interaction inhibitors, confirmation, orthogonal assay, biochemical, ELISA, streptavidin-HRP readout (AID 1060)
Estrogen receptor beta, sequence (Q92731 whole entry): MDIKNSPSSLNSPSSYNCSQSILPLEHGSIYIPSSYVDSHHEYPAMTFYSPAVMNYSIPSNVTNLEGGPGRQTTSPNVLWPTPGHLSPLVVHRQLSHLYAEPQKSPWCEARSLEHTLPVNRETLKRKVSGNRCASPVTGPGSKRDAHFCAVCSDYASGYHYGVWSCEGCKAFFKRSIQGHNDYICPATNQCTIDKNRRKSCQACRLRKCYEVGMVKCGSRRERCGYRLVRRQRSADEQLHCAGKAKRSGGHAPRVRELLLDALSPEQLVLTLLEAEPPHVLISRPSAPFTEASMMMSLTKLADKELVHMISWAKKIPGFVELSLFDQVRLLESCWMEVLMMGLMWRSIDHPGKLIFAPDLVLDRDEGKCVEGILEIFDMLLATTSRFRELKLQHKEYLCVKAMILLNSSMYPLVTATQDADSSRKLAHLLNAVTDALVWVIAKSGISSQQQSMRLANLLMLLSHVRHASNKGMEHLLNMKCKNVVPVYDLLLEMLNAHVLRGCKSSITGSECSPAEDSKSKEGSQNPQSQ

[10] = P. falciparum Dd2 growth inhibitors, dose response, SYBR Green, cherry-picked samples (AID 1159567); type: functional, cell-based
[11] = HepG2 cell cytotoxicity, dose response, cytotoxicity control, plate reader, dry powder samples (AID 1159569); type: functional, cell-based;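 further: inhibitor potency with signal falling toward the positive control level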
[12] = P. falciparum ATP4 D1247Y mutant growth inhibitors, dose response, NITD609-resistant line, SYBR Green, dry powder (AID 1159571); type: functional, cell-based;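 further: parasites synchronized at ring stage by sorbitol before testing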
[13] = P. falciparum 3D7-ScDHODH growth inhibitors, dose response, SYBR Green, dry powder samples (AID 1159570); type: functional, cell-based;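 further: parasite growth measured after 72 hours of compound exposure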
[14] = P. falciparum Dd2 growth inhibitors, dose response, SYBR Green, dry powder samples (AID 1159566); type: functional, cell-based;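 further: potency for growth inhibition with lower SYBR green DNA signal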
[15] = HepG2 cell cytotoxicity, dose response, cytotoxicity control, cherry-picked samples (AID 1159577); type: functional, cell-based
[16] = target: T4, DNA repair and recombination protein RAD54-like (Homo sapiens, UniProt Q92698); assay: inhibitors of human RAD54 branch migration, confirmation, biochemical, fluorescence, cherry-picked samples, dose series (AID 651657); type: functional
T4 sequence (Q92698 whole entry): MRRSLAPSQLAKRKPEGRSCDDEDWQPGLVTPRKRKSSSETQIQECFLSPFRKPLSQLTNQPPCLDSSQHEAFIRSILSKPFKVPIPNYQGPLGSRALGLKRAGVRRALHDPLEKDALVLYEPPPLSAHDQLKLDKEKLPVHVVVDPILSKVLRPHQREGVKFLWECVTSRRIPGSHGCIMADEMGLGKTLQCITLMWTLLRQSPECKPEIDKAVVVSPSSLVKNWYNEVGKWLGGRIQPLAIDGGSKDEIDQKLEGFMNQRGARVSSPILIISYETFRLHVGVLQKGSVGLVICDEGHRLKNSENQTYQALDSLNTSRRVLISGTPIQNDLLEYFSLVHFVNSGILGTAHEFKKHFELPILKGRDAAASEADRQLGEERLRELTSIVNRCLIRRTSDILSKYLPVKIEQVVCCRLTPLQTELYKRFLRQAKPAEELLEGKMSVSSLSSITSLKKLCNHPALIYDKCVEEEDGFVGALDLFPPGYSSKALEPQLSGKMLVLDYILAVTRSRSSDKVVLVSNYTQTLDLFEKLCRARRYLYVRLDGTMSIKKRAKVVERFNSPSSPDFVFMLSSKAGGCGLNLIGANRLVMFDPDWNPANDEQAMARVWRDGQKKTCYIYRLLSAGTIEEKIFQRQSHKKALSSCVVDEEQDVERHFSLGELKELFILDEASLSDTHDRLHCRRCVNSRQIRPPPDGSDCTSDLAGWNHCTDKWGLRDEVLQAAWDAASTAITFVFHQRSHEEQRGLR

Cytochrome P450 3A4 = Cytochrome P450 3A4 (Homo sapiens, UniProt P08684);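 further: CYP3A4 tested as one member of a cytochrome P450 panel screen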
Cytochrome P450 3A4, sequence (P08684 whole entry): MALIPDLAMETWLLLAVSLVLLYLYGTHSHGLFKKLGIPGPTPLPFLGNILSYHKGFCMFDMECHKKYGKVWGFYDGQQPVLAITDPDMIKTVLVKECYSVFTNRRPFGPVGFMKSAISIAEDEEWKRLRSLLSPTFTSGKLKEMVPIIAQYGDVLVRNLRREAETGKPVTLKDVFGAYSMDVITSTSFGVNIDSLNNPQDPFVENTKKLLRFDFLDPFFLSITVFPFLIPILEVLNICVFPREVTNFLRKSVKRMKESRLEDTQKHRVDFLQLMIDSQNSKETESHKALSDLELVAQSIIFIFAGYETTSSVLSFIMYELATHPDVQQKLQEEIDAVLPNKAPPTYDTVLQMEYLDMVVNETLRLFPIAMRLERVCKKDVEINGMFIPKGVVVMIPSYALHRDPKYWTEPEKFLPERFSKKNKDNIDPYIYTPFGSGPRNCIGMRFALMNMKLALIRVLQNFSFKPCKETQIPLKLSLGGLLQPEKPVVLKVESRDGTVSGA

Cytochrome P450 1A2 = target: T5, Cytochrome P450 1A2 (Homo sapiens, UniProt P05177);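 further: PubChem cytochrome P450 panel assay, CYP1A2 panel member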
T5 sequence (P05177 whole entry): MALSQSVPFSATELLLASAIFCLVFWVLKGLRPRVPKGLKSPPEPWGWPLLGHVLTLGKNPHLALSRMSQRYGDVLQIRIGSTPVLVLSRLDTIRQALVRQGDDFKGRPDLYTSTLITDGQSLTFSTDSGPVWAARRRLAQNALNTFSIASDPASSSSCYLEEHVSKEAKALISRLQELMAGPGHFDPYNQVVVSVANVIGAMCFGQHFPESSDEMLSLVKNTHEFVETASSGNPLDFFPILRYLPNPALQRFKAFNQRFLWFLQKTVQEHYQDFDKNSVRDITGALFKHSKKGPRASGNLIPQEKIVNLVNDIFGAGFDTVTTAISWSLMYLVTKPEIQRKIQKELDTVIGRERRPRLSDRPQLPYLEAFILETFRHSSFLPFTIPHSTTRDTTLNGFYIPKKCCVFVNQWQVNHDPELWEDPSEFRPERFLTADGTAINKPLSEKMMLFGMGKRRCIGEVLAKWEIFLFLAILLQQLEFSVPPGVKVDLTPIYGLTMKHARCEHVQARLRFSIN

[17] = target: T6, DNA repair protein RAD52 homolog (Homo sapiens, UniProt P43351); type: functional, biochemical
T6 sequence (P43351 whole entry): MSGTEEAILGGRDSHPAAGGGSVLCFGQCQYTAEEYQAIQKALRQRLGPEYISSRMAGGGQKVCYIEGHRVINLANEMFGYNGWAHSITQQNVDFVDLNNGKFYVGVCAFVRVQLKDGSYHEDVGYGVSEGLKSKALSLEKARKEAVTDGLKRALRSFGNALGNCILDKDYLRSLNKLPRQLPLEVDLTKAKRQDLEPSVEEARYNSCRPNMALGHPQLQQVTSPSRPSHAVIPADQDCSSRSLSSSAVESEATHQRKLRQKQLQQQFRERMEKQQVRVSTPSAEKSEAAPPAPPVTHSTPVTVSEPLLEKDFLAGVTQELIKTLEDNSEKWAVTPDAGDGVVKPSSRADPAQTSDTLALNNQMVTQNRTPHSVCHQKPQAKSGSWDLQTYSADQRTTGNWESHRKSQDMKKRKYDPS

For `O=C(Nc1nnc(-c2ccc(Br)cc2)o1)C1=COCCO1`, the IC50 (cells [1]) was 5.97 µM (active).

For `CC(=N)/C(C#N)=C(/O)CSc1ncnc2ccccc12`, the EC50 [2] was 8.02 µM (active), the IC50 (cells [3]) was 17.9 µM (active) and the EC50 [4] was > 300 µM (not active).

In the case of `N#Cc1nc(-c2cccc3ccccc23)oc1N`, the CC50 [5] is reported as > 50 µM (active) and the IC50 (cells [3]) is reported as 23.2 µM (active).

In the case of `CCOC(=O)N/N=C(/C)c1ccc([N+](=O)[O-])o1`, the EC50 [6] is reported as 0.589 µM (active), the AC50 (Cytochrome P450 2C9) is reported as “inconclusive” and the AC50 (Cytochrome P450 2C19; read-out: AC50) is reported as 25.1 µM (inconclusive). The EC50 [7] was > 30 µM (not active).

For `CSCCOC(=O)COc1ccc(/C=N/NC(=O)c2c(Cl)cnn2C)cc1`, the IC50 (cells [1]) was 4.7 µM (active).

With `CCN(CC)S(=O)(=O)c1cccc2c(N(C)C)cccc12` the IC50 (Protein skinhead-1) was > 100 µM (inactive) and the AC50 (Cytochrome P450 2C9) was “inconclusive”.

With `OC(COc1ccc(C2C=CCC2)cc1)CN1CCCCC1` (centres undefined) the EC50 [8] was 40.2 µM (active), the EC50 [9] was 32 µM (active) and the IC50 (Estrogen receptor beta) was 13.1 µM (not active).

For `COc1ccc2c3c(n(C)c2c1)[C@@H](CO)N(Cc1ccccc1OC)CC31CCN(CC2CC2)CC1`, the AC50 [10] was 1.29 µM (active), the AC50 [11] was 34.5 µM (active) and the AC50 [12] was 1.07 µM (active). For the same compound, the AC50 [13] was 2.52 µM (active), the AC50 [14] was 0.522 µM (active) and the AC50 [15] was > 39 µM (inactive).

For `COCCCn1c(Cc2csc(Nc3cccc(Cl)c3)n2)nnc1SCC(=O)OC`, the IC50 (Estrogen receptor beta) was 17 µM (not active).

For `CC1CCCC(C)N1CC(=O)Nc1sc2c(c1C#N)CCC2` (centres undefined), the IC50 (Estrogen receptor beta) was 22.5 µM (not active).

For `c1ccc(-c2nnc(SCc3nnc(-c4cccs4)o3)o2)cc1`, the IC50 (cells [1]) was 30.4 µM (active).

In the case of `NCc1csc(Nc2nncc3ccccc23)n1`, the AC50 [16] is reported as 23.7 µM (active).

For `O=C(N/N=C/c1cccc(F)c1)c1csc2c1CCCC2`, the AC50 (Cytochrome P450 3A4) was 15.8 µM (inconclusive) and the AC50 (Cytochrome P450 2C9) was “inconclusive”.

In the case of `C/C=C/c1ccc([C@H]2[C@@H]3CN(C(=O)Nc4ccc(C(F)(F)F)cc4)C[C@H]2N3)cc1`, the AC50 [10] is reported as 3.42 µM (active), the AC50 [11] is reported as 25.8 µM (active) and the AC50 [12] is reported as 4.31 µM (active). For the same compound, the AC50 [13] was 4.43 µM (active), the AC50 [14] was 5.42 µM (active) and the AC50 [15] was 25.2 µM (active).

With `CCCC(=O)Nc1ccc(-c2nc3cc(C)c(C)cc3o2)cc1` the IC50 (cells [3]) was 48.2 µM (active).

In the case of `CCN(CC)CCNC(=O)c1cc2c(-c3ccc(Cl)cc3)nn(C)c2s1`, the EC50 [8] is reported as 5.5 µM (active), the EC50 [9] is reported as 4.09 µM (active) and the AC50 [16] is reported as 6.7 µM (active).

In the case of `COc1ncc2nc(C)c(=O)n(CCC#N)c2n1`, the AC50 (Cytochrome P450 2C9) is reported as “inconclusive”, the AC50 (Cytochrome P450 2C19) is reported as “inconclusive” and the AC50 (Cytochrome P450 1A2) is reported as 15.8 µM (inconclusive).

In the case of `CN1CCN(c2nc(-c3cccc([N+](=O)[O-])c3)nc3ccccc23)CC1`, the AC50 [16] is reported as 7.36 µM (active).

In the case of `O=C(c1ccccc1)N(Cc1ccco1)C1CCS(=O)(=O)C1` (centres undefined), the AC50 (Cytochrome P450 2C9) is reported as “inconclusive” and the AC50 (Cytochrome P450 2C19; read-out: AC50) is reported as 31.6 µM (inconclusive).

With `COc1ccc(C(=O)N2CC(c3ccc(Cl)cc3)CC2=O)cc1` (centres undefined) the IC50 (cells [3]) was 31.5 µM (active).

With `COc1cccc2sc3cc(NCCCN4CCOCC4)ccc3c(=O)c12` the AC50 [17] was 5.68 µM (active) and the AC50 [16] was 10.6 µM (active).

With `COc1cc(C(=O)NCCC(C)C)c([N+](=O)[O-])cc1OC` the AC50 (Cytochrome P450 2C9) was “inconclusive”.

With `CSc1ccccc1NC(=O)c1cc(C(C)C)on1` the IC50 (cells [1]) was 27.9 µM (active).
